Read-outs that look alike come from different tables or passages of the source.
What was measured:
non-growing UPEC CFT073 = assay: Dilution-regrowth assay (screen, hit validation, dose-response) on stationary-phase UPEC; format: cell-based, Escherichia coli; conditions: for Regrowth, OD600 at 6h or 8h after dilution into drug-free medium: average; for OD600 at 6hr, Mean: after dilution into drug-free medium
How it was run: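 Regrowth (OD600 after 6 h, 37 °C) of diluted non-growing CFT073, following 24 h compound treatment of 24 h stationary cultures, defines activity relative to untreated control. Screen at 20 µM, validation at 20, 10, 5 µM (duplicates), dose–response in three biological replicates fitted by five-parameter logistic.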

[1] = test system: non-growing S. aureus DSM2569; assay: Dilution-regrowth assay (OD600, start-growth-time) on stationary-phase S. aureus; format: cell-based, Staphylococcus aureus; conditions: for Regrowth, OD600 at 6h or 8h after dilution into drug-free medium: average; for OD600 at 8hr, Mean: after dilution into drug-free medium
How it was run: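 Non-growing S. aureus was tested in a dilution-regrowth format. Cells were cultured and treated for 24 h in 1:4 diluted CA-MHB, pH 7.4, then diluted into drug-free medium, and OD600 was measured every 20 min. Start-growth-time was the time OD600 passed 0.12. Dose-response curves were fitted with a five-parameter logistic equation to derive EC50.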

[2] = test system: intracellular S. flexneri 5a M90T in TC7 cells; assay: microbe, parasite or virus in culture; format: cell-based, Shigella flexneri; conditions: for Fluorescence intensity (RFU), Mean, 0.25 x MIC / Fluorescence intensity (RFU), Mean, 0.5 x MIC / Fluorescence intensity (RFU), Mean, 2 x MIC / Fluorescence intensity (RFU), Mean, 4 x MIC / Fluorescence intensity (RFU), Mean, 8 x MIC / Fluorescence intensity (RFU), Mean, 16 x MIC / Fluorescence intensity (RFU), Mean, 32 x MIC / Fluorescence intensity (RFU), Mean, MIC: TC7 cells infected with GFP-expressing S. flexneri, 14 h treatment
[3] = E. coli, LPM pH 5.5, regrowth delay of non-growing bacteria, 24 h treatment, OD600 6 h after 2500-fold dilution, read-out: EC50
[4] = E. coli, pH 7.4, regrowth delay of non-growing bacteria, 1:4 CA-MHB, 24 h treatment, OD600 6 h after 2500-fold dilution, read-out: EC50
[5] = S. aureus, regrowth delay of non-growing bacteria, 1:4 CA-MHB pH 7.4, 24 h treatment, OD600 8 h after dilution, read-out: EC50
[6] = E. coli in 1:4 CA-MHB (pH 7.4), 0.25 μM
[7] = E. coli in 1:4 CA-MHB (pH 7.4), 0.5 μM
[8] = E. coli in 1:4 CA-MHB (pH 7.4), 1 μM
[9] = E. coli in 1:4 CA-MHB (pH 7.4), 2.5 μM
[10] = E. coli in 1:4 CA-MHB (pH 7.4), 5 μM
[11] = E. coli in 1:4 CA-MHB (pH 7.4), 10 μM
[12] = E. coli in 1:4 CA-MHB (pH 7.4), 30 μM
[13] = E. coli in LPM (pH 5.5), 0.25 μM
[14] = E. coli in LPM (pH 5.5), 0.5 μM
[15] = E. coli in LPM (pH 5.5), 2.5 μM

Molecule: COc1c(N2C[C@@H]3CCCN[C@@H]3C2)c(F)cc2c(=O)c(C(=O)O)cn(C3CC3)c12 [Moxifloxacin]
- Regrowth, OD600 at 6h or 8h after dilution into drug-free medium (non-growing UPEC CFT073; E. coli in 1:4 CA-MHB (pH 7.4), concentration 0.25): 0.565
- Regrowth, OD600 at 6h or 8h after dilution into drug-free medium (non-growing UPEC CFT073; E. coli in 1:4 CA-MHB (pH 7.4), concentration 0.5): 0.481
- Regrowth, OD600 at 6h or 8h after dilution into drug-free medium (non-growing UPEC CFT073; E. coli in 1:4 CA-MHB (pH 7.4), concentration 1): 0.120
- Regrowth, OD600 at 6h or 8h after dilution into drug-free medium (non-growing UPEC CFT073; E. coli in 1:4 CA-MHB (pH 7.4), concentration 2.5): 0.067
- Regrowth, OD600 at 6h or 8h after dilution into drug-free medium (non-growing UPEC CFT073; E. coli in 1:4 CA-MHB (pH 7.4), concentration 5): 0.066
- Regrowth, OD600 at 6h or 8h after dilution into drug-free medium (non-growing UPEC CFT073; E. coli in 1:4 CA-MHB (pH 7.4), concentration 10): 0.068
- Regrowth, OD600 at 6h or 8h after dilution into drug-free medium (non-growing UPEC CFT073; E. coli in 1:4 CA-MHB (pH 7.4), concentration 30): 0.065
- Regrowth, OD600 at 6h or 8h after dilution into drug-free medium (non-growing UPEC CFT073; E. coli in LPM (pH 5.5), concentration 0.25): 0.577
- Regrowth, OD600 at 6h or 8h after dilution into drug-free medium (non-growing UPEC CFT073; E. coli in LPM (pH 5.5), concentration 0.5): 0.563
- Regrowth, OD600 at 6h or 8h after dilution into drug-free medium (non-growing UPEC CFT073; E. coli in LPM (pH 5.5), concentration 1): 0.570
- Regrowth, OD600 at 6h or 8h after dilution into drug-free medium (non-growing UPEC CFT073; E. coli in LPM (pH 5.5), concentration 2.5): 0.577
- Regrowth, OD600 at 6h or 8h after dilution into drug-free medium (non-growing UPEC CFT073; E. coli in LPM (pH 5.5), concentration 5): 0.574
- Regrowth, OD600 at 6h or 8h after dilution into drug-free medium (non-growing UPEC CFT073; E. coli in LPM (pH 5.5), concentration 10): 0.567
- Regrowth, OD600 at 6h or 8h after dilution into drug-free medium (non-growing UPEC CFT073; E. coli in LPM (pH 5.5), concentration 30): 0.530
- EC50 (non-growing UPEC CFT073; Escherichia coli, E. coli, pH 7.4, regrowth delay of non-growing bacteria, 1:4 CA-MHB, 24 h treatment, OD600 6 h after 2500-fold dilution, read-out: EC50): 0.649 µM
- Regrowth, OD600 at 6h or 8h after dilution into drug-free medium ([1]; S. aureus, concentration 0.1): 0.607
- Regrowth, OD600 at 6h or 8h after dilution into drug-free medium ([1]; S. aureus, concentration 0.5): 0.484
- Regrowth, OD600 at 6h or 8h after dilution into drug-free medium ([1]; S. aureus, concentration 2.5): 0.330
- Regrowth, OD600 at 6h or 8h after dilution into drug-free medium ([1]; S. aureus, concentration 10): 0.150
- EC50 ([1]; Staphylococcus aureus, DSM2569, S. aureus, regrowth delay of non-growing bacteria, 1:4 CA-MHB pH 7.4, 24 h treatment, OD600 8 h after dilution, read-out: EC50): 4.82 µM
- IC50 ([2]; Shigella flexneri, TC7, 14 h): 35 nM
- Fluorescence intensity (RFU), Mean, 0.25 x MIC [2]: 7400.12 RFU
- Fluorescence intensity (RFU), Mean, 0.5 x MIC [2]: 5542.67 RFU
- Fluorescence intensity (RFU), Mean, 2 x MIC [2]: 3672.56 RFU
- Fluorescence intensity (RFU), Mean, 4 x MIC [2]: 2897.78 RFU
- Fluorescence intensity (RFU), Mean, 8 x MIC [2]: 2156.25 RFU
- Fluorescence intensity (RFU), Mean, 16 x MIC [2]: 1789.81 RFU
- Fluorescence intensity (RFU), Mean, 32 x MIC [2]: 1608.56 RFU
- Fluorescence intensity (RFU), Mean, MIC [2]: 3564.03 RFU

Molecule: N#Cc1c(N2C[C@@H]3NCCO[C@H]3C2)c(F)cc2c(=O)c(C(=O)O)cn(C3CC3)c12 [Finafloxacin]
- EC50 (non-growing UPEC CFT073; [3]): 13.6 µM
- EC50 (non-growing UPEC CFT073; [4]): 7.19 µM
- EC50 [1, 5]: 4.66 µM
- Fluorescence intensity (RFU), Mean, 2 x MIC [2]: 5014.06 RFU
- Fluorescence intensity (RFU), Mean, 4 x MIC [2]: 3886.5 RFU
- Fluorescence intensity (RFU), Mean, 8 x MIC [2]: 3157.03 RFU
- Fluorescence intensity (RFU), Mean, 16 x MIC [2]: 2833.69 RFU
- Fluorescence intensity (RFU), Mean, 32 x MIC [2]: 2227.19 RFU
- Fluorescence intensity (RFU), Mean, MIC [2]: 6107.08 RFU
- IC50 ([2]; intracellular S. flexneri in TC7 cells, GFP fluorescence after 14 h treatment, read-out: IC50): 202 nM

Molecule: Bleomycin
- OD600 at 6hr, Mean (non-growing UPEC CFT073; [6]): 0.585
- OD600 at 6hr, Mean (non-growing UPEC CFT073; [7]): 0.575
- OD600 at 6hr, Mean (non-growing UPEC CFT073; [8]): 0.327
- OD600 at 6hr, Mean (non-growing UPEC CFT073; [9]): 0.130
- OD600 at 6hr, Mean (non-growing UPEC CFT073; [10]): 0.073
- OD600 at 6hr, Mean (non-growing UPEC CFT073; [11]): 0.067
- OD600 at 6hr, Mean (non-growing UPEC CFT073; [12]): 0.076
- OD600 at 6hr, Mean (non-growing UPEC CFT073; [13]): 0.600
- OD600 at 6hr, Mean (non-growing UPEC CFT073; [14]): 0.583
- OD600 at 6hr, Mean (non-growing UPEC CFT073; E. coli in LPM (pH 5.5), 1 μM): 0.569
- OD600 at 6hr, Mean (non-growing UPEC CFT073; [15]): 0.559
- OD600 at 6hr, Mean (non-growing UPEC CFT073; E. coli in LPM (pH 5.5), 5 μM): 0.513
- OD600 at 6hr, Mean (non-growing UPEC CFT073; E. coli in LPM (pH 5.5), 10 μM): 0.348
- OD600 at 6hr, Mean (non-growing UPEC CFT073; E. coli in LPM (pH 5.5), 30 μM): 0.169
- EC50 (non-growing UPEC CFT073; [3]): 9.49 µM
- EC50 (non-growing UPEC CFT073; [4]): 0.987 µM
- OD600 at 8hr, Mean ([1]; S. aureus, 0.1 μM): 0.622
- OD600 at 8hr, Mean ([1]; S. aureus, 0.5 μM): 0.595
- OD600 at 8hr, Mean ([1]; S. aureus, 2.5 μM): 0.351
- OD600 at 8hr, Mean ([1]; S. aureus, 10 μM): 0.129
- EC50 [1, 5]: 2.56 µM
- inhibition of intracellular Shigella ([2]; TC7 cells): inactive

Molecule: Cn1c(COP(=O)(NCCBr)NCCBr)cnc1[N+](=O)[O-] [Evofosfamide]
- OD600 at 6hr, Mean (non-growing UPEC CFT073; [6]): 0.603
- OD600 at 6hr, Mean (non-growing UPEC CFT073; [7]): 0.596
- OD600 at 6hr, Mean (non-growing UPEC CFT073; [8]): 0.573
- OD600 at 6hr, Mean (non-growing UPEC CFT073; [9]): 0.563
- OD600 at 6hr, Mean (non-growing UPEC CFT073; [10]): 0.534
- OD600 at 6hr, Mean (non-growing UPEC CFT073; [11]): 0.521
- OD600 at 6hr, Mean (non-growing UPEC CFT073; [12]): 0.480
- OD600 at 6hr, Mean (non-growing UPEC CFT073; [13]): 0.553
- OD600 at 6hr, Mean (non-growing UPEC CFT073; [14]): 0.543
- OD600 at 6hr, Mean (non-growing UPEC CFT073; E. coli in LPM (pH 5.5), 1 μM): 0.392
- OD600 at 6hr, Mean (non-growing UPEC CFT073; [15]): 0.282
- OD600 at 6hr, Mean (non-growing UPEC CFT073; E. coli in LPM (pH 5.5), 5 μM): 0.193
- OD600 at 6hr, Mean (non-growing UPEC CFT073; E. coli in LPM (pH 5.5), 10 μM): 0.124
- OD600 at 6hr, Mean (non-growing UPEC CFT073; E. coli in LPM (pH 5.5), 30 μM): 0.114
- EC50 (non-growing UPEC CFT073; Escherichia coli, pH 5.5): 1.54 µM
- EC50 (non-growing UPEC CFT073; Escherichia coli, pH 5.5, read-out: EC50 (regrowth inhibition curve, Fig. S4)): 1.54 µM
- EC50 (non-growing UPEC CFT073; Escherichia coli, pH 7.4): 11.6 µM
- activity against non-growing UPEC in LPM (pH 5.5) compared to 1:4 CA-MHB (pH 7.4) (non-growing UPEC CFT073; regrowth delay and killing, Figs. 2 and 3): potentiated by the low pH
- OD600 at 8hr, Mean ([1]; S. aureus, 0.1 μM): 0.802
- OD600 at 8hr, Mean ([1]; S. aureus, 0.5 μM): 0.751
- OD600 at 8hr, Mean ([1]; S. aureus, 2.5 μM): 0.502
- OD600 at 8hr, Mean ([1]; S. aureus, 10 μM): 0.107
- EC50 ([1]; Staphylococcus aureus, DSM2569, pH 7.4): 2.66 µM
- MIC:IC50 ratio ([2]; S. flexneri MIC in TSB versus intracellular IC50): below 0.5
- IC50 ([2]; Shigella flexneri, TC7, 14 h): 102000 nM
- Fluorescence intensity (RFU), Mean, 0.25 x MIC [2]: 9046.58 RFU
- Fluorescence intensity (RFU), Mean, 0.5 x MIC [2]: 8823.33 RFU
- Fluorescence intensity (RFU), Mean, 2 x MIC [2]: 7151.78 RFU
- Fluorescence intensity (RFU), Mean, 4 x MIC [2]: 5305.28 RFU
- Fluorescence intensity (RFU), Mean, 8 x MIC [2]: 3462.11 RFU
- Fluorescence intensity (RFU), Mean, MIC [2]: 8378.86 RFU

— PMC11992225, “Antibacterial compounds against non-growing and intracellular bacteria” (npj Antimicrobials and Resistance, 2025)
